In a melting point compilation (Tetko et al.; mined from patent text by program, amines drawn as free bases though some values may be those of a salt) one finds melting point data, which are given here for 91 compounds.

Usually melting point stands for the temperature of the solid-liquid transition.

Where only a bound is given, the exact number is not on record here.

`Cc1noc(NC(=O)N2CCN(c3nccc(-c4ccccc4F)n3)CC2)c1C` came in with a melting point of 194 to 195 °C.

Consider `CCC(C)(C)c1cc(C(=O)c2ccccc2)c(O)cc1O`, for which the melting point lay within 100 to 104 °C.

In the case of `CN(Cc1cccc2c1C(=O)N(C1CCC(=O)NC1=O)C2=O)C(=O)Nc1ccc(Cl)c(Cl)c1` (stereo unspecified), the melting point lay in the range of 255 to 257 °C.

The compound `c1ccc(CN(c2ccccc2)c2cccc3ccccc23)cc1` registered a melting point of 120 to 123 °C.

As for `COC(=O)[C@H](O)[C@@H](O)C(C)C`, the melting point lay in the range of 32 to 34 °C.

Turning to `OC1(c2cncs2)CCCc2cc(Cl)ccc21` (stereo unspecified), the melting point was 108 to 109 °C.

In the case of `CN1CCN(c2n[nH]c(-c3ccc(I)cc3)c2-c2ccncc2)CC1`, the melting point fell in the range of 265 to 266 °C.

`CNC(=O)Cn1c(-c2ccc(C)cc2)nc2ccc(Cl)nc21` registered a melting point of more than 250 °C.

For `CC1C(=O)N(c2cccc(Cl)c2)N=C1N` (stereo unspecified), the melting point is 138 °C.

As to `COC(=O)c1cc(S(C)(=O)=O)ccc1OCC(C)C`, the melting point fell in the range of 76 to 81 °C.

Compound `CCOC(=O)CC1CN=C(c2cc3cccc(N(C)S(=O)(=O)c4cccnc4)c3[nH]2)S1` (stereo unspecified) gave a melting point of 146 to 147 °C.

For the compound `O=C1Nc2ccc(Cl)cc2CN2CCCC12` (stereo unspecified), the melting point was 97 to 99 °C.

`CCC(=O)Nc1c(C#N)cnn1-c1nc(NCc2ccccc2)c(C(F)(F)F)cc1Cl` had a melting point of 139 to 142 °C.

In the case of `Cc1nc(Cc2ccc(O)cc2)c2c(c1OCCCCNC(C)C)COC2`, the melting point was in the range of 59 to 61 °C.

In turn, `CCCNC(=O)c1nc(C)ccc1C(=O)Nc1c(C#N)ccc(Cl)c1C` came in with a melting point of 175 to 176 °C.

Regarding `CCOCc1nc2c(N)nc3cc(-n4ccnc4)cnc3c2n1CC(C)C`, the melting point lay in the range of 175 to 176 °C.

For `O=[N+]([O-])c1cccc(-c2ccc3c(n2)[nH]c2ccccc23)c1`, the melting point amounted to 185 °C.

The compound `O=C(Nc1ccc(-n2nc(C(F)(F)F)cc2C(F)(F)F)cc1)c1cccnc1Cl` displayed a melting point of 145 to 147 °C.

Regarding `COc1cc(C(=O)N2CCC(CCN3CCC(C(=O)c4nc5ccccc5n4Cc4ccc(F)cc4)CC3)(c3ccc4c(c3)OCO4)C2)cc(OC)c1OC` (stereo unspecified), the melting point was in the range of 112 to 114 °C.

In turn, `C=CCc1cc(Cc2cnc(N)nc2N)c2ccc(C)nc2c1O` showed a melting point of 236 to 237 °C.

As to `O=C(O)C1(Cn2cnnn2)CCCC1`, the melting point lay in the range of 192 to 196 °C.

As for `C=C(C)Cc1c(C)c(NC=O)c(C)c(CC(=C)C)c1O`, the melting point is 169 to 170 °C.

With `CCN1c2ncccc2C(=O)N(C)c2ccc(-c3cnn(CC)c3)nc21`, the melting point lay within 60 to 62 °C.

Turning to `O=c1n(CC(O)c2ccccc2)c2c(Br)c(Br)c(Br)c(Br)c2n1CC(O)c1ccccc1` (stereo unspecified), the melting point is 121 to 123 °C.

As for `O=C1OC(CCc2ccccc2)(c2ccccc2)CC(O)=C1Sc1ccccc1` (stereo unspecified), the melting point was in the range of 58 to 60 °C.

`c1ccc2c(c1)-c1ccccc1C21c2ccccc2-c2ccccc21` displayed a melting point of 198 °C.

`O=S1(=O)NCN(C2CCCCCCC2)c2cc(Cl)c(Cl)cc21`: the melting point lay in the range of 154 to 155 °C.

`CCCCc1c(-c2cc(C)c(O)c(C)c2)[nH]c2ccccc12` gave a melting point of 83.1 to 84.2 °C.

`CCCc1c(OCC(O)COc2cccc(NC(=O)C(=O)OCC)c2C#N)ccc(C(C)=O)c1O` (stereo unspecified) had a melting point of 172 to 174 °C.

With `Nc1nc2ccccc2c2c1ncn2CCOCCCc1cccs1`, the melting point lay in the range of 130 to 132 °C.

For `COC(=O)c1cc(F)c(N2CCC(NC(C)=O)C2)nc1Nc1ccc(F)cc1F` (stereo unspecified), the melting point was 199 to 200 °C.

As for `CC(=NOCCOc1ccc(CC2SC(=O)NC2=O)cc1)c1cccc(O)c1` (stereo unspecified), the melting point was in the range of 133 to 135 °C.

With `C[C@@H](Cn1ncc2ccc(O)c(Br)c21)NC(=O)OCc1ccccc1`, the melting point stood at 40 °C.

`CCCOc1ccc(S(=O)(=O)CCC)cc1C(N)=O`: the melting point fell in the range of 168 to 170 °C.

In the case of `CC(C)(C)N(N=O)C1CCCCC1`, the melting point came to 87 °C.

Compound `CCCCN1C2=NCCN2C(c2ccccc2)c2cc(Cl)ccc21` (stereo unspecified) came in with a melting point of 97 to 97.5 °C.

The compound `Cc1cnc2c(N)ccc(C)c2c1Cl` came in with a melting point of 120 to 122 °C.

`COC(=O)c1ccc(Cl)c(O)c1`: the melting point fell in the range of 100 to 101 °C.

The compound `O=C1CCCN1Nc1ccncc1` registered a melting point of 177 to 180 °C.

`Cc1ncnc(-c2cc([N+](=O)[O-])c(F)cc2F)c1Cl` displayed a melting point of 95 to 97 °C.

Regarding `CCN1c2ncc(CCc3ccccc3)cc2C(=O)N(C)c2c1ncc(C)c2C`, the melting point lay within 187 to 188 °C.

Regarding `Nc1ccc2c(c1)C(=O)N(c1ccc3ccsc3c1)C2`, the melting point was 233 to 236 °C.

In turn, `O=C(c1ccc2nc(C3CC3)n(Cc3ccccc3Cl)c2c1)N1CCOCC1` showed a melting point of 193 to 195 °C.

As for `COc1cc(N)c(Cl)cc1C(=O)NCC1CCN(CCCOCc2ccccc2)CC1`, the melting point lay within 82 to 83 °C.

Turning to `CCOCn1c(C(=O)c2cc(C)cc(C)c2)c(C(C)C)c(=O)[nH]c1=O`, the melting point fell in the range of 120 to 122 °C.

Compound `c1cc(CN2CCCCC2)cc(OCCNc2nc3ccccc3s2)c1` showed a melting point of 141 to 142 °C.

In the case of `O=P(O)(O)Cc1ccc(-c2ccc(CP(=O)(O)O)cc2)cc1`, the melting point came out at 114 °C.

`CCN(c1ccc(C#N)cc1Cl)S(=O)(=O)c1ccc(C)cc1` showed a melting point of 112 to 114 °C.

The compound `Brc1ccc2c(c1)CC(Cc1ccccc1)O2` (stereo unspecified) registered a melting point of 70 to 72 °C.

In turn, `COc1ccc2c(c1)CCC(CC#N)C2=O` (stereo unspecified) showed a melting point of 90 to 93 °C.

In turn, `CCNC=C(C(=O)OCC)C(=O)c1cc(F)c(F)c(C)c1F` had a melting point of 110 °C.

`CCOC(=O)c1c(C(F)F)nc(C(F)(F)F)c(C(=O)OCC)c1-c1ccncc1` gave a melting point of 43 to 45 °C.

For `CC(=O)c1ccc2c(c1)CCc1ccccc1-2`, the melting point fell in the range of 58 to 60 °C.

The compound `CCOC(=O)c1cc2cccc(OCc3ccccc3)c2[nH]1` came in with a melting point of 82 to 83 °C.

Compound `CN(C)c1cc(-c2c[nH]cn2)ccn1` gave a melting point of 173 to 174 °C.

For the compound `O=Cc1ccc2c(c1)C=C(C(=O)O)C(C(F)(F)F)O2` (stereo unspecified), the melting point fell in the range of 211 to 216 °C.

Consider `COCCCN1CC[C@@H](CNC(=O)c2cc(Cl)cc3c2OCCO3)[C@H](O)C1`, for which the melting point was found to be 110 °C.

In turn, `C=CCN(CC=C)CC(=O)N1c2ccccc2N(CCCC)C(=O)c2cnc(-c3ccccc3)nc21` came in with a melting point of 137 to 138 °C.

Turning to `Cc1ccc(S(=O)(=O)NCCc2cccc(OCCN)c2)cc1`, the melting point was in the range of 128 to 130 °C.

On to `Cc1c(-c2ccccc2)nnc(N(C)C)c1C`, for which the melting point lay within 86 to 89 °C.

For the compound `O=C1CC(c2ccccc2)NC(=O)C1C(=O)c1ccccc1F` (stereo unspecified), the melting point lay in the range of 115 to 116 °C.

`Nc1ccc(Br)c(-c2nc3ncccc3o2)c1` registered a melting point of 172 to 174 °C.

In turn, `CC1=C(c2ccccc2)n2nc(C)c3c(=O)[nH]c(=S)n(c32)C1` showed a melting point of 255 to 257 °C.

Take `CCOC(=O)C1=CC(=NO)CC(c2ccc(Cl)cc2F)N1` (stereo unspecified): the melting point lay within 124 to 126 °C.

Compound `CCc1nc2c(C)cc(C)nc2n1Cc1ccc(C(Cc2nnn[nH]2)c2ccccc2Cl)cc1` (stereo unspecified) registered a melting point of 217 to 221 °C.

For the compound `Cc1cc(C)cc(N2CCN(C(=O)NCC(c3ccccc3)c3ccccc3)CC2)c1`, the melting point was 174 to 175 °C.

The compound `CCC(=O)N(C(=O)CC)c1c(I)cc(Br)cc1S(=O)(=O)Cl` returned a melting point of 127 to 132 °C.

Take `COc1ccc2[nH]c(C)c(-c3nc(OC)cc(OC)n3)c2c1`: the melting point lay in the range of 182 to 184 °C.

For `CCCCn1c(=O)n(C(C)C)c(=O)c2[nH]c(C)nc21`, the melting point lay within 172 to 173 °C.

In the case of `CC(C)(C)OC(=O)Nc1cc(-c2nnc(CCc3cccc(F)c3)o2)ccn1`, the melting point was 256 to 257 °C.

In turn, `COc1ccccc1OCC(O)CN1CCC2(CC1)CNC(=O)O2` (stereo unspecified) yielded a melting point of 124 to 125 °C.

`COc1ccc([N+](=O)[O-])cc1N1CCN(C(=O)OC(C)(C)C)CC1` yielded a melting point of 136 to 137 °C.

The compound `CC(=O)c1ccc(CCN2CCN(c3ccc(Cl)cc3)CC2)cc1` yielded a melting point of 141 to 143 °C.

`CC(=O)OCc1nc(C(Cl)Cl)cnc1N1C(=O)c2ccccc2C1=O` displayed a melting point of 117 to 118 °C.

Consider `CC(=O)S[C@H]1C[C@@H](C(=O)Nc2cccc(C(=O)NS(C)(=O)=O)c2)N(C(=O)OCc2ccc([N+](=O)[O-])cc2)C1`, for which the melting point was in the range of 240 to 242 °C.

Take `CCC(=O)C1C(=O)CC(C#N)CC1=O` (stereo unspecified): the melting point was 70 to 74 °C.

`NC(=O)c1ccc(-c2ccc3nnn(Cc4c(F)cc5ncccc5c4F)c3n2)cc1Cl` showed a melting point of 216 to 219 °C.

As to `CC[C@@H](C(=O)O)n1ccc2ccc(Cl)cc2c1=O`, the melting point came to 160 °C.

As for `Cc1[nH]n(-c2ccccc2)c(=O)c1C(=O)C(C)C`, the melting point is 61 to 62 °C.

In the case of `CCCCC(=O)c1oc(=O)[nH]c1C`, the melting point was 92 to 94 °C.

`Cc1nc(NC(=O)CCc2ccccc2)sc1C(=O)NCc1ccccc1` showed a melting point of 63 to 65 °C.

In the case of `Brc1cncc(-c2ccccc2)c1`, the melting point was in the range of 42 to 44 °C.

Take `CCOC(=O)c1cc2cc(C)sc2[nH]1`: the melting point fell in the range of 107 to 109 °C.

The compound `O=C1CCCC2=C1C(c1ccc(F)cc1O)C1=C(CCS1)N2` (stereo unspecified) displayed a melting point of more than 250 °C.

With `Cc1cc(C)c(-c2c(O)sc(-c3ccccc3)nc2=O)c(C)c1`, the melting point lay in the range of 240 to 242 °C.

`Cc1onc(-c2ccccc2)c1-c1ccc(S(C)(=O)=O)cc1` had a melting point of 54 to 56 °C.

As for `COC(=O)C(CC(C)C)NC(=O)C(CC(=O)c1ccccc1)Cc1ccccc1` (stereo unspecified), the melting point was in the range of 81 to 83 °C.

For the compound `CCCCCCCCCCCCCCCCNc1ccc(C(=O)OCC(CO)OC(C)=O)cc1` (stereo unspecified), the melting point turned out to be 67 °C.

For `CCN(CC)CCOC(=O)c1ccc(/C=C(\C)c2ccc3c(c2)C(C)(C)CCC3(C)C)cc1`, the melting point lay within 65 to 66 °C.

Compound `CSc1ccc(C)c2onc(OCCNC(=O)OC(C)(C)C)c12` yielded a melting point of 85 to 86 °C.

The compound `COc1ccc(-c2nc(Sc3ccc(F)cc3F)[nH]c2-c2ccc(OC)cc2)cc1` gave a melting point of 174 to 176 °C.
